Calls of active or inactive are those of the source. The calls are words filed in the database; no cut-off is given here.
Experiments:
[1] = tested on: Staphylococcus aureus; experiment: Induction of morphological changes in Staphylococcus aureus ATCC 25923 assessed as cell adhesion at 2 times of MIC incubated for 30 to 120 mins by SEM analysis; format: functional, organism-based; conditions: time 30-120 min
[2] = tested on: Pseudomonas aeruginosa; experiment: Induction of morphological changes in Pseudomonas aeruginosa ATCC 27853 assessed as content leakage at 2 times of MIC incubated for 30 to 120 mins by SEM analysis; format: functional, organism-based; conditions: time 30-120 min
[3] = Toxicity in male Balb/c mouse assessed as animal death at 127 mg/kg, ip measured within 2 days; format: organism-based; conditions: in vivo, 48 h, time < 2 day
[4] = tested on: Staphylococcus aureus; experiment: Antibacterial activity against Staphylococcus aureus ATCC 25923 incubated for 18 hrs in presence of FeCl3 by Mueller-Hinton broth based assay; format: functional, organism-based
[5] = tested on: Staphylococcus aureus; experiment: Antibacterial activity against Staphylococcus aureus ATCC 25923 assessed as fold change in MIC incubated for 18 hrs in presence of 2.5% serum by broth microdilution method; format: functional
[6] = tested on: Pseudomonas aeruginosa; experiment: Antimicrobial activity against Pseudomonas aeruginosa ATCC 27853 assessed as inhibition of visible bacterial growth incubated for 18 hrs by broth microdilution method; format: functional
[7] = tested on: Acinetobacter baumannii; experiment: Antimicrobial activity against Acinetobacter baumannii ATCC 19606 assessed as inhibition of visible bacterial growth incubated for 18 hrs by broth microdilution method; format: functional
[8] = tested on: Staphylococcus aureus; experiment: Antimicrobial activity against methicillin-drug resistant Staphylococcus aureus clinical isolate 54 assessed as concentration required to eliminate 90% bacteria incubated for 18 hrs by broth-microdilution method; format: functional
[9] = tested on: Staphylococcus aureus; experiment: Antimicrobial activity against methicillin-drug resistant Staphylococcus aureus clinical isolate 936 assessed as concentration required to eliminate 90% bacteria incubated for 18 hrs by broth-microdilution method; format: functional
[10] = tested on: Staphylococcus aureus; experiment: Antimicrobial activity against methicillin-drug resistant Staphylococcus aureus clinical isolate 48 assessed as concentration required to eliminate 90% bacteria incubated for 18 hrs by broth-microdilution method; format: functional
[11] = tested on: DNA; experiment: Binding affinity to Staphylococcus aureus ATCC 25923 DNA at 2 times of MIC measured after 30 mins by agarose gel electrophoresis; format: nucleic-acid assay
[12] = tested on: Pseudomonas aeruginosa; experiment: Bactericidal activity against Pseudomonas aeruginosa ATCC 27853 assessed as bacterial eradication at 1 times of MIC measured after 60 mins by time-kill kinetics assay; format: functional, organism-based
[13] = tested on: Pseudomonas aeruginosa; experiment: Antibiofilm activity in Pseudomonas aeruginosa ATCC 27853 assessed as inhibition of biofilm formation at 1 times of MIC incubated for 24 hrs by crystal violet staining based analysis relative to control; format: functional
[14] = tested on: Cell membrane; experiment: Disruption of outer membrane integrity in Pseudomonas aeruginosa ATCC 27853 assessed as increase in fluorescence intensity at 1 times of MIC measured for 12 mins by NPN uptake assay; format: subcellular
[15] = tested on: Staphylococcus aureus; experiment: Antimicrobial activity against Staphylococcus aureus ATCC 25923 assessed as inhibition of visible bacterial growth incubated for 18 hrs by broth-dilution method; format: functional
[16] = tested on: Escherichia coli; experiment: Antimicrobial activity against multi-drug resistant Escherichia coli clinical isolate 804 assessed as concentration required to eliminate 90% bacteria incubated for 18 hrs by broth-microdilution method; format: functional
[17] = tested on: Klebsiella pneumoniae; experiment: Antibacterial activity against Klebsiella pneumoniae ATCC 700603 infected in male Balb/c mouse model of pneumonia assessed as decrease in bacterial load in lung at 2.5 to 10 mg/kg, ip administered at 4 and 12 hrs post-infected and measured after 24 hrs by agar plate method; format: functional, organism-based; conditions: dose 2.5-10 mg/kg, time 20.0 hrs
[18] = tested on: Staphylococcus aureus; experiment: Antibacterial activity against Staphylococcus aureus ATCC 25923 assessed as inhibition of bacterial growth at 2 times of MIC incubated for 18 hrs in presence of 2000 microg/ml of chymotrypsin by absorbance based assay; format: functional, organism-based
[19] = tested on: Pseudomonas aeruginosa; experiment: Synergistic antimicrobial activity against gentamicin-resistant Pseudomonas aeruginosa ATCC 27853 assessed as fractional inhibitory concentration index incubated for 18 hrs in presence of gentamicin by checkerboard microdilution method; format: functional
[20] = tested on: Pseudomonas aeruginosa; experiment: Resistance fold, ratio of MIC for Pseudomonas aeruginosa ATCC 27853 measured after 20 passages to MIC for Pseudomonas aeruginosa ATCC 27853 measured immediately; format: functional
[21] = tested on: Staphylococcus aureus; experiment: Induction of morphological changes in Staphylococcus aureus ATCC 25923 assessed as blister formation at 2 times of MIC incubated for 30 to 120 mins by SEM analysis; format: functional, organism-based; conditions: time 30-120 min
[22] = tested on: Staphylococcus aureus; experiment: (§1) Antibacterial activity against methicillin-resistant Staphylococcus aureus ATCC 33591 infected in male Balb/c mouse model of full thickness skin wound assessed as reduction in bacterial load in skin at 1 mg/ml pre-infected with bacteria for 1 hrs followed by compound administration at 1,12 and 36 hrs post infection and measured 60 hrs post infection by agar plate method; format: functional, organism-based; conditions: time 59.0 hrs
[23] = tested on: Staphylococcus aureus; experiment: Induction of morphological changes in Staphylococcus aureus ATCC 25923 assessed as content leakage at 2 times of MIC incubated for 30 to 120 mins by SEM analysis; format: functional, organism-based; conditions: time 30-120 min
[24] = tested on: Staphylococcus aureus; experiment: Induction of morphological changes in Staphylococcus aureus ATCC 25923 assessed as cellular fragmentation at 2 times of MIC incubated for 30 to 120 mins by SEM analysis; format: functional, organism-based; conditions: time 30-120 min
[25] = tested on: Staphylococcus aureus; experiment: Bactericidal activity against Staphylococcus aureus ATCC 25923 assessed as bacterial killing measured upto 360 mins by time-kill kinetics assay; format: functional, organism-based
[26] = tested on: Pseudomonas aeruginosa; experiment: Antibacterial activity against Pseudomonas aeruginosa ATCC 27853 incubated for 18 hrs in presence of ZnCl2 by Mueller-Hinton broth based assay; format: functional, organism-based
[27] = tested on: Staphylococcus aureus; experiment: Bactericidal activity against Staphylococcus aureus ATCC 25923 assessed as bacterial eradication at 1 times of MIC measured within 90 mins by time-kill kinetics assay; format: functional, organism-based
[28] = tested on: Staphylococcus aureus; experiment: Antibacterial activity against Staphylococcus aureus ATCC 25923 incubated for 18 hrs in presence of 10% serum by broth microdilution method; format: functional, organism-based
[29] = tested on: Staphylococcus aureus; experiment: Antibiofilm activity in Staphylococcus aureus ATCC 25923 assessed as inhibition of biofilm formation at 4 times of MIC incubated for 24 hrs by crystal violet staining based analysis relative to control; format: functional
[30] = tested on: Klebsiella pneumoniae; experiment: Antibacterial activity against Klebsiella pneumoniae ATCC 700603 infected in male Balb/c mouse model of pneumonia assessed as decrease in decrease in TNF-alpha level in lung at 2.5 to 10 mg/kg, ip administered at 4 and 12 hrs post-infected and measured after 24 hrs by ELISA; format: functional, organism-based; conditions: dose 2.5-10 mg/kg, time 20.0 hrs
[31] = Toxicity in male Balb/c mouse assessed as effect on survival at 63.5 mg/kg, ip measured after 7 days; format: organism-based; conditions: in vivo, 168 h, time 7 day
[32] = tested on: Staphylococcus aureus; experiment: as §1, with “number of inflammatory cells” for “bacterial load”, “after 10 days” for “60 hrs post infection”, “H and E staining based analysis” for “agar plate method”; format: functional, organism-based; conditions: time 10.0 day
[33] = tested on: Staphylococcus aureus; experiment: Induction of morphological changes in Staphylococcus aureus ATCC 25923 assessed as membrane disruption at 2 times of MIC incubated for 30 to 120 mins by SEM analysis; format: functional, organism-based; conditions: time 30-120 min
[34] = Toxicity in male Balb/c mouse assessed as mortality at 100.8 mg/kg, ip measured after 7 days relative to control; format: organism-based; conditions: in vivo, time 7 day
[35] = tested on: Klebsiella pneumoniae; experiment: Antibacterial activity against Klebsiella pneumoniae ATCC 700603 infected in male Balb/c mouse model of pneumonia assessed as decrease in inflammatory cell infiltration in […] at 2.5 mg/kg, ip administered at 4 and 12 hrs post-infected and measured after 24 hrs by H and E staining based analysis; format: functional, organism-based; conditions: time 20.0 hrs

In the case of H-RRWFRRWRRWFR-NH2, the Activity [1] is reported as “Active”, the Activity [2] is reported as “Active” and the Activity [3] is reported as “Toxic”. The Activity [4] was “Active”, the “fold change (FC)” value [5] was 32 and the MIC [6] was 2 µM. It also gave an MIC [7] of 8 µM, an EC90 [8] of 3.42 µM and an EC90 [9] of 5.22 µM. The EC90 [10] was 2.78 µM, the Activity [11] was “Active” and the Activity [12] was “Active”. The “inhibition (INH)” value [13] was over 90%, the Activity [14] was “Active” and the MIC [15] was 2 µM. For the same substance, the EC90 [16] was 5.42 µM, the Activity [17] was “Active” and the Activity [18] was “Not active; Entire Loss Of Activity Observed”. The “fractional inhibitory concentration index (FICI)” value [19] was 0.5, the “fold change (FC)” value [20] was “<=2” and the Activity [21] was “Active”. The Activity [22] was “Active”, the Activity [23] was “Active” and the Activity [24] was “Active”. The Activity [25] was “Dose-dependent-effect”, the Activity [26] was “Active” and the Activity [27] was “Active”. The Activity [28] was “inactive”, the “inhibition (INH)” value [29] was about 75% and the Activity [30] was “Active”. For the same substance, the Activity [31] was “Non-toxic”, the Activity [32] was “Active” and the Activity [33] was “Active”. The mortality at 168 h [34] was 75% and the Activity [35] was “Active”.
